Some targets named below: Adenosine receptor A2a (Homo sapiens, UniProt P29274); Mu-type opioid receptor (Homo sapiens, UniProt P35372); Vasopressin V1a receptor (Homo sapiens, UniProt P37288).
Assay [1] has as its target T1, Equilibrative nucleoside transporter 1 (Homo sapiens, UniProt Q99808).
T1 sequence (Q99808 whole entry): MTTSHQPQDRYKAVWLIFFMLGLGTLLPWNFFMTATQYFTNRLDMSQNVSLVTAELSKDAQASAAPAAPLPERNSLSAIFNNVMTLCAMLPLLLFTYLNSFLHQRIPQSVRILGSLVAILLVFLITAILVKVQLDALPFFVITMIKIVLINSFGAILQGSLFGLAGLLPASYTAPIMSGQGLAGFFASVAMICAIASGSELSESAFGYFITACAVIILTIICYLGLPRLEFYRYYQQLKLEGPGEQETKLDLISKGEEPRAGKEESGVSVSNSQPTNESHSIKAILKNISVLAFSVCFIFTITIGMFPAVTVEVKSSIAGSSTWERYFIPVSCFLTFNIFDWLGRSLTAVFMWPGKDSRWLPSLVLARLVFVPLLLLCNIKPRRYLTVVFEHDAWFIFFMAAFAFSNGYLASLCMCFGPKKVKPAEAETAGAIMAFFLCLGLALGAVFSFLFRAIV

Assay [2] addresses T2, 5-hydroxytryptamine receptor 2B (Homo sapiens, UniProt P41595). It is filed as functional, cell-based.
The target of another assay is T3, Progesterone receptor (Homo sapiens, UniProt P06401).
T3 sequence (P06401 whole entry): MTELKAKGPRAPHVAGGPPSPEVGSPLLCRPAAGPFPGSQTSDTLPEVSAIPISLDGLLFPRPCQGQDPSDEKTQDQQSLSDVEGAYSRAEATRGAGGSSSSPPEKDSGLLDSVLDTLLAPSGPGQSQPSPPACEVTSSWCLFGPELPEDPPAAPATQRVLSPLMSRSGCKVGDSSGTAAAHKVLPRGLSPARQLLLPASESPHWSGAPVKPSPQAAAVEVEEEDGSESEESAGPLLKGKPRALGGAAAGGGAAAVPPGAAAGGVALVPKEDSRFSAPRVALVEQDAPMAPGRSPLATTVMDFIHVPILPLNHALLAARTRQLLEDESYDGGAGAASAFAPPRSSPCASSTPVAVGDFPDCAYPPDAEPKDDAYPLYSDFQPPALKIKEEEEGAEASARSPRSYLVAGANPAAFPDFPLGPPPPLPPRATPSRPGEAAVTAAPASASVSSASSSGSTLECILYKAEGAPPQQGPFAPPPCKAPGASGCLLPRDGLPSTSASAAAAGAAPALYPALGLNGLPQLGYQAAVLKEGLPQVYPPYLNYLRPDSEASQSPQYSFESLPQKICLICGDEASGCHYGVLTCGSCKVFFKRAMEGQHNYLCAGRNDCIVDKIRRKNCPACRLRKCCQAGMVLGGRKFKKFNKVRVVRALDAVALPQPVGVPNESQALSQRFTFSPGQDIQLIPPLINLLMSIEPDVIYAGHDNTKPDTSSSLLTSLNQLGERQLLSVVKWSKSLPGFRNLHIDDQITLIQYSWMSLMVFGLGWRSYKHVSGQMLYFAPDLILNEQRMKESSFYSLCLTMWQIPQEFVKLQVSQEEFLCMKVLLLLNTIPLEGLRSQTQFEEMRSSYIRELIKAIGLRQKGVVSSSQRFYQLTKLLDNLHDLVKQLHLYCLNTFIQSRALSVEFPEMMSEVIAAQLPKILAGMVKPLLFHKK
The class given is functional.

For assay [3], the target named is Gamma-aminobutyric acid receptor subunit alpha-1 (Rattus norvegicus, UniProt P62813). It is filed as functional.
Chain of Gamma-aminobutyric acid receptor subunit alpha-1 (P62813 whole entry): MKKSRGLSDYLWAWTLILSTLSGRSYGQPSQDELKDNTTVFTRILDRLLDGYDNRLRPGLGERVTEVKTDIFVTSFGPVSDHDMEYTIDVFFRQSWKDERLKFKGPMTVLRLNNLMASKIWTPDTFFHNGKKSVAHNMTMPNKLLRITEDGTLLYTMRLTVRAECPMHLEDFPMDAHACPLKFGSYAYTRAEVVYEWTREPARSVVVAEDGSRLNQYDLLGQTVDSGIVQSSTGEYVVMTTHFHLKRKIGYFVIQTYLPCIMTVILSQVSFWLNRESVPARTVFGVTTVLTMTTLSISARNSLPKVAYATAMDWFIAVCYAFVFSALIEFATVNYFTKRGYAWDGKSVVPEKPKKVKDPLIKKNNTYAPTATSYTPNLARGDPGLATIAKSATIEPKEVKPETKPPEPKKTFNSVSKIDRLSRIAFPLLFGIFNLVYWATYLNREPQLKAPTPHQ
The target in the next assay is T4, Adenosine receptor A3 (Homo sapiens, UniProt P0DMS8).
T4 sequence (P0DMS8 whole entry): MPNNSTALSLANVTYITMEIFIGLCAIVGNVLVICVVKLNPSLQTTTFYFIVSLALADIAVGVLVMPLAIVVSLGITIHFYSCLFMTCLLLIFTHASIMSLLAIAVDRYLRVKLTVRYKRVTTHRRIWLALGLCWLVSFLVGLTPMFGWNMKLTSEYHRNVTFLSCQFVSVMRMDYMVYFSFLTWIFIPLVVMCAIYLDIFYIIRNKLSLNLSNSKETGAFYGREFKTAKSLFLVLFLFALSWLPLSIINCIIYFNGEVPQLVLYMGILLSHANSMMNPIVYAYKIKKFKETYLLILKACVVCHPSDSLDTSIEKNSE

The target in assay [4] is 3',5'-cyclic-AMP phosphodiesterase 4D (Homo sapiens, UniProt Q08499). It is filed as functional.
Chain of 3',5'-cyclic-AMP phosphodiesterase 4D (Q08499 whole entry): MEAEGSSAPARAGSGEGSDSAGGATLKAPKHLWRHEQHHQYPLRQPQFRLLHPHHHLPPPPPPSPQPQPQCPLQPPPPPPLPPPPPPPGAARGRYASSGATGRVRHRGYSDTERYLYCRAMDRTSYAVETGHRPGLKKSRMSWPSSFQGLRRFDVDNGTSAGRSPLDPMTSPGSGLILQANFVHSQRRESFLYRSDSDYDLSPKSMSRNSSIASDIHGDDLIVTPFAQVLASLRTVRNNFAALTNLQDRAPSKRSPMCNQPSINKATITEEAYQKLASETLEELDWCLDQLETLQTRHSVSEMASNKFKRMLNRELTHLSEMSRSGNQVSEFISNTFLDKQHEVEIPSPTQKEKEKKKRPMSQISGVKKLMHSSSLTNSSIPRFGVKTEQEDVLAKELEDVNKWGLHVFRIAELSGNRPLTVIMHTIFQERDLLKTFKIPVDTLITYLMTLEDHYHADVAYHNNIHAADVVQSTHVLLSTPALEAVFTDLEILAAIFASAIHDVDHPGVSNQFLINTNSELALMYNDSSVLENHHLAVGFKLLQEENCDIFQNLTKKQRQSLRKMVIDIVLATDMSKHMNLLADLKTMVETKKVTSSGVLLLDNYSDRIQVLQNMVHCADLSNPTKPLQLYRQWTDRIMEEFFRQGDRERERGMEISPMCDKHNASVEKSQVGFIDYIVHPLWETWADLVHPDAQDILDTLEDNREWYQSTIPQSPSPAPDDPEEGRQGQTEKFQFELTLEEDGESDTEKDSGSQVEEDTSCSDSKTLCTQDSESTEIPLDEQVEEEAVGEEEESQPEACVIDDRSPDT
Assay [5] concerns the target T2, 5-hydroxytryptamine receptor 2B. It is filed as functional, cell-based. The source holds these as a separate data set.
In assay [6] the target is T5, Muscarinic acetylcholine receptor M2 (Homo sapiens, UniProt P08172).
T5 sequence (P08172 whole entry): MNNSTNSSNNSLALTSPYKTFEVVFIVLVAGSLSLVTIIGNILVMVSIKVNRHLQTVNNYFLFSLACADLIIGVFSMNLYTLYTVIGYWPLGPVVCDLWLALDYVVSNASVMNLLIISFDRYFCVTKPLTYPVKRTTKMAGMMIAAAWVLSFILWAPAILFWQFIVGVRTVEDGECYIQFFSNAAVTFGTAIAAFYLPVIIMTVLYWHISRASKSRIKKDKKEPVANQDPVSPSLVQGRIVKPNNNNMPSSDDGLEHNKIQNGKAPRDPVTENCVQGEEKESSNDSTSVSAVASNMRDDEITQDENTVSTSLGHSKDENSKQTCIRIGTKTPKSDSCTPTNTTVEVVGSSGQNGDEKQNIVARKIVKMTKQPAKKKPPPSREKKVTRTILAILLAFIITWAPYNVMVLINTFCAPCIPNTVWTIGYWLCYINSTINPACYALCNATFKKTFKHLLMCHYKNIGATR
It is filed as functional, cell-based.

Assay [7] concerns the target Glutamate receptor ionotropic, NMDA 1 (Rattus norvegicus, UniProt P35439).
Also: assay procedure not described here.

Chain of Mu-type opioid receptor (P35372 whole entry): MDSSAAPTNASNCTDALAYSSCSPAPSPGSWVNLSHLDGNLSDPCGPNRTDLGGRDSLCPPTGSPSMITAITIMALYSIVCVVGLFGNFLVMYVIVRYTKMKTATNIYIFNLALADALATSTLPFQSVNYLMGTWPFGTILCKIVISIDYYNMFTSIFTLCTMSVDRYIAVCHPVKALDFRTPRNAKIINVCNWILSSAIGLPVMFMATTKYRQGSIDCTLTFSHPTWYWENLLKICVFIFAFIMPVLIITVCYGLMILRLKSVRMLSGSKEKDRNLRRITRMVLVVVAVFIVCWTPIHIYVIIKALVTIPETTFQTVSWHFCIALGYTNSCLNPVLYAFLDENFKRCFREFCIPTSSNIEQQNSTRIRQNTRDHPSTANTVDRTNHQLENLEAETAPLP
Chain of Adenosine receptor A2a (P29274 whole entry): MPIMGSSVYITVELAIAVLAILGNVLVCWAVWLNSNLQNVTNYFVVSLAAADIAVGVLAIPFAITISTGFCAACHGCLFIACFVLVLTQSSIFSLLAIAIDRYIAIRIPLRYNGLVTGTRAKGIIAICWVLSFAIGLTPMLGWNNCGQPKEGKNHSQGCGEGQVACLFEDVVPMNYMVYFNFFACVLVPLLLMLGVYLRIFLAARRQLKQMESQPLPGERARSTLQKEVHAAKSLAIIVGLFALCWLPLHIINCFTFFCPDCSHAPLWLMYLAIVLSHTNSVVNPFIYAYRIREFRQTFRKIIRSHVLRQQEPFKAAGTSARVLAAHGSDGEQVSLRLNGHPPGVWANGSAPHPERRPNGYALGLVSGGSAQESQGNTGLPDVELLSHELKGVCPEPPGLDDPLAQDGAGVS
T2 sequence (P41595 whole entry): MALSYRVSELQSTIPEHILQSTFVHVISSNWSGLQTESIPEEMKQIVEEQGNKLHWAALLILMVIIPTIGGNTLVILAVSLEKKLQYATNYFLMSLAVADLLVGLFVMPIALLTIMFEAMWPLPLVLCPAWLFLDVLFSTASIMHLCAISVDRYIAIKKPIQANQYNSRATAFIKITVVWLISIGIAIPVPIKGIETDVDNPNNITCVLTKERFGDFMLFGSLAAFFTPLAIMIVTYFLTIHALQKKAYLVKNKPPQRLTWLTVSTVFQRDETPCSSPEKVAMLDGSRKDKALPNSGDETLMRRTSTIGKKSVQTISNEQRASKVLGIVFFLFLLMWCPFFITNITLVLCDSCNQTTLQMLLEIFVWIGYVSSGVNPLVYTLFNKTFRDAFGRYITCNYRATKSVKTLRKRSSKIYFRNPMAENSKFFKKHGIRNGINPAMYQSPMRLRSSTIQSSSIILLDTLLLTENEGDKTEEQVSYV
Chain of Vasopressin V1a receptor (P37288 whole entry): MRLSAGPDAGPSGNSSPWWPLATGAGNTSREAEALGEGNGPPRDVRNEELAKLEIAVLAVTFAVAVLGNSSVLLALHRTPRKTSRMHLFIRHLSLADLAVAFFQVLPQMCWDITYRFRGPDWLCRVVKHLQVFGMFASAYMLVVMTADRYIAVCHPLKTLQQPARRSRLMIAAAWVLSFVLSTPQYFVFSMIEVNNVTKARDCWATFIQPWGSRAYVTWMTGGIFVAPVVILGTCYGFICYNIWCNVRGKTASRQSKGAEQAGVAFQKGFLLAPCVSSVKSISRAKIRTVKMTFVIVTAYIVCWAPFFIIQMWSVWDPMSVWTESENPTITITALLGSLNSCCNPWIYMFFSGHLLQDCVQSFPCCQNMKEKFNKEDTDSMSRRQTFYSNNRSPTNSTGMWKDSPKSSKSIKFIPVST

For `Cc1nnc(SCC2=C(C(=O)O)N3C(=O)[C@@H](NC(=O)Cn4cnnn4)[C@H]3SC2)s1` [CEFAZOLIN], the AC50 (in [1]; in assay [2]; on Progesterone receptor; at Adenosine receptor A2a; in assay [3]; on Mu-type opioid receptor) was > 300 µM throughout. In addition, the concentration at half-maximal activity (AC50) (as a rule, the concentration giving half of the maximal activity seen) is > 300 µM on Adenosine receptor A3; > 300 µM in assay [4]; > 300 µM in [5]; > 300 µM in [6]; > 30 µM in assay [7]; > 300 µM on Vasopressin V1a receptor.
`CCCc1nc2c(C)cc(-c3nc4ccccc4n3C)cc2n1Cc1ccc(-c2ccccc2C(=O)O)cc1`: the AC50 in assay [1] is > 30 µM; in assay [2], > 30 µM; at Progesterone receptor, > 30 µM; on Adenosine receptor A2a, > 30 µM; in assay [3] it was > 30 µM; at Mu-type opioid receptor it was 10.8 µM. Besides, the AC50 on Adenosine receptor A3 was 18.3 µM; in assay [4] it was 7.1 µM; in [5], 6.33 µM; in assay [6], 5.16 µM; in [7] it was > 30 µM; on Vasopressin V1a receptor it was > 30 µM.
Take `Cc1nc(Nc2ncc(C(=O)Nc3c(C)cccc3Cl)s2)cc(N2CCN(CCO)CC2)n1` [DASATINIB]: the AC50 is > 30 µM in [1]; > 30 µM in assay [2]; > 30 µM at Progesterone receptor; > 30 µM on Adenosine receptor A2a; > 30 µM on Mu-type opioid receptor; 21.5 µM on Adenosine receptor A3. The half-maximal activity concentration (AC50) in assay [4] is 28 µM; in assay [5] it was 6.3 µM; in [6], > 30 µM; in assay [7], > 10 µM; on Vasopressin V1a receptor, > 30 µM.
For `CC(C)Cc1ccc([C@H](C)C(=O)O)cc1` [DEXIBUPROFEN], the AC50 (in assay [1]; in [2]; on Progesterone receptor; on Adenosine receptor A2a; in assay [3]; at Mu-type opioid receptor) was > 30 µM each time. Also, the AC50 (on Adenosine receptor A3; in assay [4]; in [5]; in assay [6]; on Vasopressin V1a receptor) was > 30 µM throughout.
Consider `CN(CCOc1ccc(CC2SC(=O)NC2=O)cc1)c1ccccn1` (stereo not drawn) [ROSIGLITAZONE], for which the concentration at half-maximal activity (AC50) was > 30 µM in [1]; > 30 µM in assay [2]; > 30 µM on Progesterone receptor; > 30 µM at Adenosine receptor A2a; > 30 µM in assay [3]; > 10 µM on Mu-type opioid receptor. Moreover, the half-maximal activity concentration (AC50) on Adenosine receptor A3 is > 30 µM; in [4], 29 µM; in [5] it was 14 µM; in [6], 22 µM; in [7], > 30 µM; on Vasopressin V1a receptor, > 30 µM.
As for `COc1cc(C(C)=O)ccc1OCCCN1CCC(c2noc3cc(F)ccc23)CC1` [ILOPERIDONE], the concentration at half-maximal activity (AC50) in assay [1] is > 30 µM; in assay [2], > 30 µM; at Progesterone receptor it was > 30 µM; at Adenosine receptor A2a it was > 30 µM; in [3], 12.9 µM; on Mu-type opioid receptor, 10 µM. For the same compound, the AC50 on Adenosine receptor A3 was > 30 µM; in assay [4] it was > 30 µM; in assay [5] it was 1.8 µM; in assay [6], 8.3 µM; on Vasopressin V1a receptor it was > 30 µM.
For `CCOc1nc2cccc(C(=O)O)c2n1Cc1ccc(-c2ccccc2-c2nnn[nH]2)cc1`, the AC50 (in assay [1]; in assay [2]; on Progesterone receptor; on Adenosine receptor A2a; in [3]; on Mu-type opioid receptor) was > 30 µM throughout. Further, the concentration at half-maximal activity (AC50) is > 30 µM at Adenosine receptor A3; > 30 µM in assay [4]; 16 µM in assay [5]; > 30 µM in assay [6]; > 30 µM on Vasopressin V1a receptor.
On to `S=P(N1CC1)(N1CC1)N1CC1` [THIOTEPA], for which the AC50 in assay [1] is > 30 µM; in assay [2] it was > 30 µM; on Progesterone receptor it was > 30 µM; on Adenosine receptor A2a, > 30 µM; in [3], > 30 µM; at Mu-type opioid receptor, 28 µM. In addition, the AC50 on Adenosine receptor A3 is > 30 µM; in assay [4], > 30 µM; in [5] it was 1.6 µM; at Vasopressin V1a receptor, > 30 µM.
Consider `CC(C)(O/N=C(\C(=O)N[C@@H]1C(=O)N2C(C(=O)[O-])=C(C[n+]3ccccc3)CS[C@H]12)c1csc(N)n1)C(=O)O` [CEFTAZIDIME], for which the AC50 (in [1]; in [2]; on Progesterone receptor; on Adenosine receptor A2a; in [3]; on Mu-type opioid receptor) was > 300 µM in each case. Besides, the AC50 at Adenosine receptor A3 was > 300 µM; in assay [4], > 300 µM; in [5], > 300 µM; in [6], > 300 µM; in assay [7], > 30 µM; at Vasopressin V1a receptor it was > 300 µM.
In the case of `CCOc1cc([C@@H](CS(C)(=O)=O)N2C(=O)c3cccc(NC(C)=O)c3C2=O)ccc1OC`, the AC50 (in [1]; in assay [2]; on Progesterone receptor; on Adenosine receptor A2a; in assay [3]; at Mu-type opioid receptor) was > 30 µM in each case. For the same compound, the AC50 is > 30 µM at Adenosine receptor A3, 4.5 µM in [5], > 30 µM in assay [6] and > 30 µM at Vasopressin V1a receptor.
Turning to `Cc1onc(-c2c(F)cccc2Cl)c1C(=O)N[C@@H]1C(=O)N2[C@@H]1SC(C)(C)[C@@H]2C(=O)O` [FLOXACILLIN], the AC50 (in assay [1]; in assay [2]; at Progesterone receptor; on Adenosine receptor A2a; in [3]; on Mu-type opioid receptor) was > 30 µM throughout. Moreover, the AC50 (on Adenosine receptor A3; in assay [4]; in assay [5]; in assay [6]; on Vasopressin V1a receptor) was > 30 µM in each case.

The record behind these values is ChEMBL document CHEMBL5291721, “A preclinical secondary pharmacology resource illuminates target-adverse drug reaction associations of marketed drugs” (Nat Commun, 2023).
